Experiment [1] has as its target T1, human histamine H4 receptor (Homo sapiens, UniProt Q9H3N8).
T1 construct: purchased PerkinElmer Inc; host or cells: CHO-K1
As to the kind of experiment: Evaluation of Human H4 Receptor Affinity ([3H]histamine binding). Conditions: inhibition constant Ki, CHO-K1 membrane preparation. The method, boiled down: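 Membranes from CHO-K1 cells expressing human H4 receptor incubated with 8.2 nM [3H]histamine and compound for 90 min at 25 °C in 50 mM Tris-HCl pH 7.4, 1.25 mM EDTA, then filtered and counted. Nonspecific binding defined with 1.0 μM histamine; Ki from IC50 by Cheng-Prusoff using Kd 5.7 nM.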

In experiment [2] the target is T1, human histamine H4 receptor. As to the kind of experiment: Evaluation of H4 Receptor Function ([35S]GTPγS binding). In kind it is biochemical. How it is done:
The antagonistic effect was evaluated by the method described below. Membrane preparation from recombinant CHO-K1 cell expressing the human histamine H4 receptor (PerkinElmer Inc.), 10 μM GDP, 0.1 μM histamine, and the compounds dissolved in DMSO were reacted at 30° C. for 20 minutes in a buffering solution containing 20 mM HEPES, pH 7.4, 100 mM NaCl, 10 mM MgCl2, 1 mM DTT, and 1 mM EDTA on an assay plate. Thereafter, SPA beads (Amersham plc) were added, followed by incubation for 60 minutes, and further 0.3 nM [^35S]GTPγS (PerkinElmer Inc.) was added, followed by incubation for 30 minutes.
A general note: Binding of GTPγS marks nucleotide exchange on a G protein.

The target of experiment [3] is T2, human histamine H1 receptor (Homo sapiens, UniProt P35367). The experiment can be described thus: Evaluation of Human H1 Receptor Affinity ([3H]pyrilamine binding). Further details: purchased PerkinElmer Inc; host or cells: CHO-K1. Conditions: inhibition constant Ki, CHO-K1 membrane preparation. The method, boiled down: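 Ki values are Cheng-Prusoff conversions of IC50 (Kd 1.1 nM) from radioligand displacement of 1.2 nM [3H]pyrilamine, with 1.0 μM pyrilamine defining nonspecific binding.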

Experiment [4] addresses T2, human histamine H1 receptor. As to the kind of experiment: Evaluation of Human H1 Receptor Function (GeneBLAzer H1-NFAT-bla HEK 293T cells). Conditions: histamine 30 nM, read-out: Evaluation of H1 Receptor Function (IC50 value, antagonistic effect). It is filed as cell-based. Here is the method:
Test Example 3: Evaluation of Human H1 Receptor Function
The antagonistic effect was evaluated by the method described below. GeneBLAzer® H1-NFAT-bla HEK 293T-cells (Invitrogen Corporation, recombinant cells expressing the human histamine H1 receptor) were incubated at 37° C. for 30 minutes in the presence of the test compounds dissolved in DMSO in a high glucose Dulbecco's Modified Eagle Medium (GlutaMAX, containing 10% fetal bovine serum, 100 μM nonessential amino acids, 25 mM HEPES, 100 U/mL penicillin, and 100 μg/mL streptomycin), and histamine was added such that the final concentration became 30 nM, followed by further incubation for 4.5 hours. Then, a mixture of LiveBLAzer™ FRET-B/G Loading Kit (Invitrogen Corporation) and Solution D (Invitrogen Corporation) was added, followed by leaving to stand at room temperature for 2 hours under shaded conditions. Thereafter, the fluorescence intensity was measured under two conditions of 400 nm/460 nm and 400 nm/535 nm (excitation light/fluorescence) by using a multilabel counter (EnVision: PerkinElmer Inc.). The 50% inhibitory concentration (IC50 value) was calculated in accordance with (measured value−blank measured value at 400 nm/460 nm)/(measured value−blank measured value at 400 nm/535 nm) of each test sample.

Setting [5] is: read-out: Evaluation of H4 Receptor Affinity.
[6] abbreviates: [35S]GTPγS binding, CHO-K1 membrane, 0.1 μM histamine, read-out: Evaluation of H4 Receptor Function (IC50 value, antagonistic effect).

pIC50, pKi: −log10 of the molar value. Like-named read-outs stand apart in the source and are kept apart here.

T2 sequence (P35367 whole entry): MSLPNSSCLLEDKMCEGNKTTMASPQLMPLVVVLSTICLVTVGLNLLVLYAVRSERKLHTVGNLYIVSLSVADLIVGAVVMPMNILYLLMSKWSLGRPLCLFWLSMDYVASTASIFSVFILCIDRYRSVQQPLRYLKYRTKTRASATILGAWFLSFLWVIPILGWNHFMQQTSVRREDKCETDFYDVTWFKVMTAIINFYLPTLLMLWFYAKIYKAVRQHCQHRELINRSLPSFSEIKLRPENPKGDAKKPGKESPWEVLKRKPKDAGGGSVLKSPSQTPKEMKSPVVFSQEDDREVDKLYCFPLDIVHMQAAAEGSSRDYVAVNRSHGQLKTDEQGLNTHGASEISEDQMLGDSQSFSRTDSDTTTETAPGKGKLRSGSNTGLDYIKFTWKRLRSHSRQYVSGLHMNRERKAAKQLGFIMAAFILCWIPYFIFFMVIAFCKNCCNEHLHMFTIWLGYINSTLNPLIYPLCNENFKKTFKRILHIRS
T1 sequence (Q9H3N8 whole entry): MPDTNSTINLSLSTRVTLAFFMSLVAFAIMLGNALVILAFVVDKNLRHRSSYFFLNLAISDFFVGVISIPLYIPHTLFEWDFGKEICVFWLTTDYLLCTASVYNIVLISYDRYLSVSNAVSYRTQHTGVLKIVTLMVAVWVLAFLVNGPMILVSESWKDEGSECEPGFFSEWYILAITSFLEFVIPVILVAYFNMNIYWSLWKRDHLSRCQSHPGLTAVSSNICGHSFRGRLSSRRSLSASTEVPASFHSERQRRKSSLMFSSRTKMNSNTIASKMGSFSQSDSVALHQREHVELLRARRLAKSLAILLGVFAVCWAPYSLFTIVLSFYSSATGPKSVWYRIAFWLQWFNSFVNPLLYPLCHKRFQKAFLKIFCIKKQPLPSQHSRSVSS

Broadly, the pIC50 is −log10 of the IC50, conventionally taken in molar units. In the case of `Nc1nc2c(c(N3CCN(CCOCc4ccc(C(=O)O)o4)CC3)n1)CCc1cc(OCc3ccc(Cl)cc3)ccc1-2` [127(b), 5-((2-(4-(2-amino-8-((4-chlorobenzyl)oxy)-5,6-dihydrobenzo[h]quinazolin-4-yl)piperazin-1-yl)ethoxy)methyl)furan-2-carboxylic acid], the pKi was 6.30 to 7.00 in experiment [1] (setting [5]) and > 7.00 in experiment [3]. In addition, the pIC50 is 5.70 to 6.70 in experiment [2] (setting [6]) and > 6.70 in experiment [4].
For `Nc1nc2c(c(N3CCN(CCOCc4cc(C(=O)O)ccc4F)CC3)n1)CCc1cc(OCc3ccc(Cl)cc3)ccc1-2` [129(b), 3-((2-(4-(2-amino-8-((4-chlorobenzyl)oxy)-5,6-dihydrobenzo[h]quinazolin-4-yl)piperazin-1-yl)ethoxy)methyl)-4-fluorobenzoic acid] the same measures were 6.30 to 7.00, > 7.00, 5.70 to 6.70 and > 6.70.
On the same counts, the results for `CN1CCN(c2nc(N)nc3c2CCc2cc(OCc4ccc(Cl)cc4)ccc2-3)CC1` [Example 1, 8-((4-chlorobenzyl)oxy)-4-(4-methylpiperazin-1-yl)-5,6-dihydrobenzo[h]quinazolin-2-amine] are > 7.00, > 7.00, > 6.70 and > 6.70.
With `CN1CCN(c2nc(N)nc3c2CCc2cc(OCc4ccccc4)ccc2-3)CC1` [Example 2, 8-(benzyloxy)-4-(4-methylpiperazin-1-yl)-5,6-dihydrobenzo[h]quinazolin-2-amine], the pKi in experiment [1] (Evaluation of H4 Receptor Affinity) and in experiment [3] was > 7.00 each time. Moreover, the pIC50 in experiment [2] and in experiment [4] was > 6.70 in each case.
For `CN1CCN(c2nc(N)nc3c2CCc2cc(OCc4ccsc4)ccc2-3)CC1` [Example 3, 4-(4-methylpiperazin-1-yl)-8-(thiophen-3-ylmethoxy)-5,6-dihydrobenzo[h]quinazolin-2-amine], the pKi in experiment [1] (setting [5]) and in experiment [3] was > 7.00 throughout. For the same compound, the pIC50 in experiment [2] (setting [6]) and in experiment [4] was > 6.70 throughout.
For the compound `Nc1nc2c(c(N3CCN(CCOC[C@H]4CC[C@@H](C(=O)O)CC4)CC3)n1)CCc1cc(OCc3ccc(Cl)cc3)ccc1-2` [Example 12, cis-4-((2-(4-(2-amino-8-((4-chlorobenzyl)oxy)-5,6-dihydrobenzo[h]quinazolin-4-yl)piperazin-1-yl)ethoxy)methyl)cyclohexane-1-carboxylic acid], the pKi in experiment [1] (setting [5]) and in experiment [3] was > 7.00 in each case. Moreover, the pIC50 is 5.70 to 6.70 in experiment [2] (setting [6]) and > 6.70 in experiment [4].
Regarding `Nc1nc2c(c(N3CCN(CCOC[C@H]4CC[C@H](C(=O)O)CC4)CC3)n1)CCc1cc(OCc3ccc(Cl)cc3)ccc1-2` [Example 13, trans-4-((2-(4-(2-amino-8-((4-chlorobenzyl)oxy)-5,6-dihydrobenzo[h]quinazolin-4-yl)piperazin-1-yl)ethoxy)methyl)cyclohexane-1-carboxylic acid], the pKi in experiment [1] (setting [5]) and in experiment [3] was > 7.00 each time. Further, the pIC50 is 5.70 to 6.70 in experiment [2] (setting [6]) and > 6.70 in experiment [4].
On to `Nc1nc2c(c(N3CCN(CCO[C@H]4C[C@@H](C(=O)O)C4)CC3)n1)CCc1cc(OCc3ccc(Cl)cc3)ccc1-2` [Example 14, cis-3-(2-(4-(2-amino-8-((4-chlorobenzyl)oxy)-5,6-dihydrobenzo[h]quinazolin-4-yl)piperazin-1-yl)ethoxy)cyclobutane-1-carboxylic acid], for which the pKi in experiment [1] (setting [5]) and in experiment [3] was > 7.00 throughout. For the same compound, the pIC50 in experiment [2] (setting [6]) was 5.70 to 6.70; in experiment [4] it was > 6.70.
As for `Nc1nc2c(c(N3CCN(CCOCCOCc4nn[nH]n4)CC3)n1)CCc1cc(OCc3ccc(Cl)cc3)ccc1-2` [Example 21, 4-(4-(2-(2-((tetrazol-5-yl)methoxy)ethoxy)ethyl)piperazin-1-yl)-8-((4-chlorobenzyl)oxy)-5,6-dihydrobenzo[h]quinazolin-2-amine], the pKi in experiment [1] (setting [5]) and in experiment [3] was > 7.00 in each case. For the same compound, the pIC50 is 5.70 to 6.70 in experiment [2] (setting [6]) and > 6.70 in experiment [4].
